How the values were obtained:
mP2X7 = biological target: T1, mP2X7 (Mus musculus, UniProt Q9Z1M0); assay: ATP-induced ethidium+ uptake in transfected HEK-mP2X7 cells; assay type: cell-based, murine
T1 construct: expressed in transfected cells; host or cells: HEK293 cells, transient transfection, GFP+ cells gated
T1 sequence (Q9Z1M0 1-595): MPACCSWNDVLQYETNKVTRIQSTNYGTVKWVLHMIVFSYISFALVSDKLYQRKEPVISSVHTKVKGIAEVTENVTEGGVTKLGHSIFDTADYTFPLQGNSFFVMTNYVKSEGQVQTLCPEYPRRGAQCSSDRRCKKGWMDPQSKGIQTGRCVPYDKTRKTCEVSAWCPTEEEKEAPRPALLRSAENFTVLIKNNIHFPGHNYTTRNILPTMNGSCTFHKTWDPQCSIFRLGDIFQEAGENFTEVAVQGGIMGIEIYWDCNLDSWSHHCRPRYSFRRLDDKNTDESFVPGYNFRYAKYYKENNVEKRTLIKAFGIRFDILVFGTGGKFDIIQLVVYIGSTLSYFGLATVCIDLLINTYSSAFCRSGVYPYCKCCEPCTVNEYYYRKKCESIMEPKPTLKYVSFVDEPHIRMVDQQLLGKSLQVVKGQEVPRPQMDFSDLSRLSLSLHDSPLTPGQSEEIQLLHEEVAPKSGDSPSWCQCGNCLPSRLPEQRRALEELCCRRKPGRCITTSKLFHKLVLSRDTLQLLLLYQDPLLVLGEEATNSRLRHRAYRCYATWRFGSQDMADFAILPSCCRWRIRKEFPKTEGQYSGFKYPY
Description: (§1) HEK293 cells were plated at 3.5 × 10^5 cells/well in 2 mL of complete DMEM/F12 medium and incubated (37 °C, 95% air/5% CO2, overnight). Cells were transfected with mP2X7-GFP (HEK-mP2X7), cP2X7-GFP (HEK-cP2X7) or hP2X4-EmGFP (HEK-hP2X4) plasmids, or mock transfected with an equivalent volume of sterile Milli-Q water (Merck Millipore, Burlington, NJ, USA), using Lipofectamine 3000 according to the manufacturer’s instructions. Cells were used for assays 48 h post-transfection. To determine transfection efficiency, cells were washed twice with D-PBS and data collected with an LSR Fortessa X-20 flow cytometer (BD Biosciences). The proportion of GFP positive cells was determined using FlowJo software v8.7.1 (BD Biosciences).
ATP-mediated uptake assays were conducted as described with either ethidium bromide or YO-PRO-1 iodide. Briefly, RPMI8226, HEK-hP2X7, HEK-mP2X7, HEK-cP2X7 or cryopreserved human peripheral blood mononuclear cells (PBMCs) were washed thrice with LDM (300× g, 5 min), resuspended in LDM and 1 × 10^6 cells were added to individual tubes. Cells were pre-incubated in the absence of compound (37 °C, 5 min) or in the presence of compound or vehicle (DMSO) (37 °C, 15 min) as indicated. […] An equal volume of ice-cold Mg^2+ stop solution was added and cells centrifuged (300× g, 5 min). Cells were washed twice in LDM (300× g, 5 min), resuspended and data were collected with an LSR Fortessa X-20 flow cytometer. MFI of ethidium^+ or YO-PRO-1^2+ was determined using FlowJo.

[1] = tested on: endogenous hP2Y receptors, including hP2Y1, hP2Y2 and hP2Y4; assay: Fura-2AM Ca2+ response assay in non-transfected HEK293 cells; assay type: cell-based, human
Description: Ca^2+ response assays were conducted as described. Briefly, HEK293, HEK-hP2X7 or HEK-hP2X4 cells were harvested and plated in black, clear-bottom 96-well plates at 5 × 10^4 cells/well overnight (37 °C, 95% air/5% CO2). Cells were washed with extracellular Ca^2+ solution (ECS) (145 mM NaCl, 2 mM CaCl2, 5 mM KCl, 13 mM glucose and 10 mM HEPES, pH 7.4) and incubated with Fura-2AM loading buffer (2.5 μM Fura-2AM and 0.2% pluronic acid in ECS) (37 °C, 95% air/5% CO2, 30 min, dark). Loading buffer was removed; cells were washed once with ECS and incubated in ECS (37 °C, 95% air/5% CO2, 20 min, dark) to allow Fura-2AM de-esterification. Where indicated, cells were pre-incubated with compound or vehicle (DMSO) (37 °C, 30 min, dark). Fura-2 fluorescence at 510 nm was measured every 5 s using a FlexStation 3 (Molecular Devices, San Jose, CA, USA). […] Data was acquired using SoftMax Pro version 7.0 (Molecular Devices). Relative changes in intracellular Ca^2+ were calculated using the ratio of Fura-2AM fluorescence at 510 nm following excitation at 340 nm and 380 nm (F340nm/380nm). […] Ca^2+ responses over time were plotted in Prism software v8.4.2 (GraphPad Software, La Jolla, CA, USA). To determine relative P2X-mediated Ca^2+ responses, the area under the curve from 100 to 180 s was calculated with GraphPad Prism. To determine P2Y-mediated Ca^2+ responses the area under the curve from 30 to 100 s was calculated. In both cases, ATP-induced responses were calculated by subtracting the corresponding basal response. These responses were normalised to the maximal ATP-induced response within their respective experiment.

hP2X4 = biological target: T2, hP2X4 (Homo sapiens, UniProt Q99571); assay: Fura-2AM Ca2+ response assay in HEK-hP2X4 cells; assay type: cell-based
T2 construct: expressed in transfected cells; host or cells: HEK293 cells, transient transfection
T2 sequence (Q99571 1-388): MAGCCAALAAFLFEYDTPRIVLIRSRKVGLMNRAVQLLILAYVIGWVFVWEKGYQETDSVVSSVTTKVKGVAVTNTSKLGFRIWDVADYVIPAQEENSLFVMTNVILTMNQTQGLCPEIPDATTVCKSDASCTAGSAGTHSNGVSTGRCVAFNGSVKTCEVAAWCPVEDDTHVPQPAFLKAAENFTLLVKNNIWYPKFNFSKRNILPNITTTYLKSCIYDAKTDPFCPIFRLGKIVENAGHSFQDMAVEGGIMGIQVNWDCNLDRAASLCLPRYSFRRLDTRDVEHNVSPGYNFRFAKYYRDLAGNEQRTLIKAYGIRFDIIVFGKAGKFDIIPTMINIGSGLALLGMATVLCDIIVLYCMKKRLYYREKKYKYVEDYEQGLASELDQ
Description: as §1
Ca^2+ response assays were conducted as described. […] Fura-2 fluorescence at 510 nm was measured every 5 s using a FlexStation 3 (Molecular Devices, San Jose, CA, USA). […] Relative changes in intracellular Ca^2+ were calculated using the ratio of Fura-2AM fluorescence at 510 nm following excitation at 340 nm and 380 nm (F340nm/380nm). […] To determine relative P2X-mediated Ca^2+ responses, the area under the curve from 100 to 180 s was calculated with GraphPad Prism. To determine P2Y-mediated Ca^2+ responses the area under the curve from 30 to 100 s was calculated. In both cases, ATP-induced responses were calculated by subtracting the corresponding basal response. […]

NHE1 = tested on: NHE1; set-up: method as in PMID 33804289; settings: cited from earlier work

blockade of mP2X7-mediated dye uptake (mP2X7; 100 μM compound, 360 μM ATP) [%]	activity against murine P2X7 relative to hP2X7 and cP2X7 (mP2X7; comparison of IC50 values)	IC50 (mP2X7; read-out: IC50, mP2X7-mediated dye uptake) [µM]	inhibition at 100 µM (hP2X4) [%]	IC50 (hP2X4; read-out: IC50, hP2X4-mediated Ca2+ flux) [µM]	IC50 ([1]; 2.5 μM ATP, AUC 30-100 s, read-out: IC50, endogenous hP2Y-mediated Ca2+ responses) [µM]	Structure (SMILES)	EC50 (mP2X7; GFP+ HEK-mP2X7 cells) [µM]	ATP concentration giving maximum response, ethidium+ uptake (mP2X7; HEK-mP2X7 cells) [mM]	ATP concentration giving maximum Ca2+ response ([1]; HEK293 cells) [µM]	EC50 ([1]; read-out: EC50 of ATP, Ca2+ response, HEK293 cells, AUC 30-100 s) [µM]	inhibition of hP2Y-mediated Ca2+ responses ([1]; 30 μM compound, 2.5 μM ATP) [%]	inhibition of NHE1 (NHE1)
–	–	–	–	–	–	Nc1ncnc2c1ncn2[C@@H]1O[C@H](COP(=O)(O)OP(=O)(O)OP(=O)(O)O)[C@@H](O)[C@H]1O [ATP, adenosine 5′-triphosphate]	364 ± 48	2	300	2.5 ± 1.01	–	–
96	ten-fold less active	23 ± 2.4	100	3.95 ± 0.19	0.33 ± 0.13	N=C(N)NC(=O)c1nc(-c2cc3cnccc3o2)c(N2CCCCCC2)nc1N [6-FPHMA, 6-furopyridine-substituted 5-(N,N-hexamethylene) amiloride]	–	–	–	–	97	inhibit
